# Measured values: ChEMBL document CHEMBL1141342, “Cytotoxic C47-polyacetylene carboxylic acids from a marine sponge Pertrosia sp” (J Nat Prod, 2007)
# System: P388
# Assay: Cytotoxicity against mouse P388 cells
# Assay type: functional, cell-based
smiles,measurement,value
C#C[C@@H](O)/C=C/CCCCCCC#C[C@H](O)C#C/C=C/CC/C=C\CCCC/C=C\CCCCCCCCCCCCCC/C=C\C#CC(=O)O [PETROFORMYNIC ACID B],IC50,0.4 µg/mL
C#C[C@@H](O)/C=C/CCCCCCC#C[C@H](O)C#C/C=C/CC/C=C\CCCC/C=C\CCCCCCCCCCCCCCCCC#CC(=O)O [PETROFORMYNIC ACID C],IC50,0.4 µg/mL
